One data set in a line: water solubility. The format is physicochemical.
In data set [1] the test system is erythrocyte phospholipids. The experiment in a line: DHA content of erythrocyte phospholipids in healthy volunteers after 3 weeks oral treatment. As to conditions: 1 g of DHA daily for 3 weeks. Format: in vivo. On the procedure: Considering that the phospholipid class of the erythrocyte membrane, along with the degree of unsaturation of the acyl chains, does condition red cell deformability and blood viscosity, it has been conducted a study to ascertain the effect of the salts in question on erythrocyte phospholipid composition, which we describe hereunder in illustration. 8 healthy volunteers were then selected and divided into 4 groups which were treated by oral route for 3 weeks with a daily quantity of DHA 1.0 g in the form of ethyl ester (1.1 g), sodium salt (1.1 g), choline salt (1.3 g) and ethanolamine salt (1.2 g). Before and after treatment samples of venous blood were collected and sodium citrate added, then the erythrocytes were isolated, washed for 3 times with saline solution (0.15M NaCl, pH 7.4) at 0° and again suspended in saline solution. 1-ml samples from the red cell suspensions were treated with 5 ml of methanol for 10 minutes then with 5 ml of chloroform containing 2 mg/100 ml of the antioxidant 2,6-di-tert.butyl-4-methyl-phenol (BHT). The organic solvents originating from 3 extractions were evaporated to dryness and the residue, formed by the erythrocyte phospholipids, was subjected to bidimensional chromatography according to Turner J. D. and Rouser G., Anal. Biochem. (Part 1--Erythrocyte lipids), 38, 423, 1970 to separate the different phospholipid classes: silica gel 60H (90 g, Merck) plus Fluorisil (7.2 g, BDH Chemicals) plates were used; the solvent systems consisted of chloroform:methanol: 25% ammonia:water (90:54:5.5:5.5) and chloroform:methanol:acetone:acetic acid:water (60:20:80:20:10). The various classes were identified against standard phospolipids (Sigma Chemical). A sample of total phospholipids and the various stains isolated were treated with 1.5 ml of boron trifluoride-methanol for 1 h at 65° C. under nitrogen, to prepare the methyl esters of the acids contained in the phospholipids to undergo gas-chromatography. To this end a Hewlet-Packard 5890 gas-chromatograph was used, fitted with a ionisation flame detector and with an HPl column 25 m in length and 0.31 mm in int. diameter; elium was used as the carrier gas, the injection port temperature was 320° C. and the detector temperature 340° C. The chamber temperature was programmed at 170° C. for 1 min., then increased by 4°°C./min up to 250° C. and kept at this temperature for 15 minutes.

In data set [2] the test system is arteriolar thrombus disaggregation. The experiment in a line: thrombolytic action: arteriolar thrombus disaggregation time after electrical vascular damage in the hamster. As to conditions: oral. The format is in vivo, hamster (Mesocricetus auratus). How it is done:
Through a different in vivo experimental model also the effect on thrombus formation and disaggregation was evaluated in the hamster, following vascular damage induced by electrical stimulation (thrombolytic action).
(§1) In the course of a typical experiment, male hamsters of the Mesocricetus auratus genus, weighing 95-115 g, were acclimatized for 1 week in the laboratory before starting the study, then semi-chronically treated by oral route, for 10 consecutive days with the products under examination. More precisely, the animals were divided into 4 groups: group I received the vehicle alone, group II received DHA ethyl ester 100 mg/kg (equivalent to DHA 92 mg/kg), group III and IV were given DHA 50 mg/kg in the form of ethanolamine salt (59.3 mg/kg) and choline salt (65.7 mg/kg respectively).One hour following the last dose the animals were anaesthetized with sodium pentobarbitone (90 mg/kg, i.p.), the cheek pouch everted with a cotton wool bud and the upper layer and the underlying a vascular connective tissue removed with ophthalmic scissors to expose the lower vascular layer which was then bathed with saline solution and examined under a Leitz Dialux microscope (magnification×250).
For the evaluation of the thrombolytic activity a micropipette was filled with 1.0M potassium chloride, applied to an arteriole of diameter 40-60μ and connected to a reference electrode placed in the animal's mouth. A negative potential was applied for 5 seconds using a Grass S48 stimulator to produce a current of 20-30 μA. A second micropipette containing 10^-2 M ADP was applied to the site of electrical damage and a negative potential applied, for 3 seconds. After the current was switched off, the time taken for the resultant thrombus to form and to disaggregate (about 40 seconds) was recorded using a stopwatch. The process of ADP stimulation of the arteriole damaged site was repeated several times and the mean was recorded of the values obtained over one hour and compared with that of the control animals.
The percentage change in the persistence of the thrombus adhering to the damaged site in the treated and untreated animals is therefore an index of the thrombolytic activity of the drug (Table 3).

Data set [3] deals with thrombus growth rate induced by ADP in the hamster microvascular system. The experiment in a line: in vivo antithrombotic action: growth rate of thrombus induced by ADP in hamster microvascular system. Also noted: species or system hamster (Mesocricetus auratus). Conditions: oral.
Text: Considered however that this action is not fully indicative of the possible therapeutic effects of a drug, we measured the in vivo effect of the new salts in extremely significant tests, by determining for instance, their effect on growth rate of a thrombus induced by a known aggregatory agent (adenosine diphosphate; ADP) in the hamster microvascular system (in vivo antithrombotic action).
as §1
Evaluation of the antithrombotic activity requires measuring the growth rate of a thrombus (white body) in the microcirculation induced by the iontophoresis of ADP from a micropipette through the vessel wall. A micropipette of diameter 12μ was filled with 10^-2 M solution of ADP connected with a silver/silver chloride reference electrode placed in the animal's mouth and applied to a venule of diameter 16-40μ. By applying a negative potential to the micropipette, ADP (2×10^-14moles per second) was injected which caused the formation of a white body (platelet thrombus) gradually growing from the wall of the venule. The growth rate of the thrombus was determined by the time taken for 30%, 50% and 90% of the white body to form, 100% referring to total occlusion of the vessel with stasis. When the current was switched off, the white body rapidly embolised and no new white bodies formed until the current was re-applied. Inhibition of thrombus growth rate was calculated by comparing measurements in treated animals with those obtained in the control group (Table 2).

Where [4] appears, read: maximum, equiv. to DHA 50 mg/kg × 10 days.

Structures can show the parent of a compound that is named as a salt.

Consider `CC/C=C\C/C=C\C/C=C\C/C=C\C/C=C\C/C=C\CCC(=O)O` [DHA ethanolamine salt], for which, in “water solubility”, the water solubility result was “totally water-soluble”. Moreover, in data set [1] (phosphatidylcholine), the “Percent increase in DHA content of erythrocyte phospholipids as compared to baseline values: Phosphatidylcholine” value is listed as 113%. The “Percent increase in DHA content of erythrocyte phospholipids as compared to baseline values: Phosphatidylethanolamine” value in data set [1] (phosphatidylethanolamine) turned out to be 70%. Also, the “Percent increase in DHA content of erythrocyte phospholipids as compared to baseline values: Total phospholipids” value in data set [1] (total phospholipids) was found to be 103%. For the same compound, the “Percentage reduction, as compared to the controls, of arteriolar thrombus disaggregation time” value in data set [2] (60-70 minutes post-dose, equiv. to DHA 50 mg/kg × 10 days) is recorded as 30.3%; in data set [2] (70-80 minutes post-dose, equiv. to DHA 50 mg/kg × 10 days), 34.2%; in data set [2] (80-90 minutes post-dose, equiv. to DHA 50 mg/kg × 10 days) it was 34.5%; in data set [2] (90-100 minutes post-dose, equiv. to DHA 50 mg/kg × 10 days), 38.1%; in data set [2] (100-110 minutes post-dose, equiv. to DHA 50 mg/kg × 10 days), 30.4%; in data set [2] (110-120 minutes post-dose, equiv. to DHA 50 mg/kg × 10 days), 29.8%. In addition, the “reduction in disaggregation time” value in data set [2] (setting [4]) is recorded as 37-38%. Also, the “thrombolytic activity (in words)” value in data set [2] (10 days) is “definitely more active, if given at the same doses”. In addition, the “Percentage reduction, as compared to the controls, of thrombus growth rate induced by ADP” value is 16.5% in data set [3] (60 minutes post-dose, equiv. to DHA 50 mg/kg × 10 days); 29.8% in data set [3] (70 minutes post-dose, equiv. to DHA 50 mg/kg × 10 days); 32.2% in data set [3] (80 minutes post-dose, equiv. to DHA 50 mg/kg × 10 days); 33.2% in data set [3] (90 minutes post-dose, equiv. to DHA 50 mg/kg × 10 days); 26.6% in data set [3] (100 minutes post-dose, equiv. to DHA 50 mg/kg × 10 days); 25.0% in data set [3] (110 minutes post-dose, equiv. to DHA 50 mg/kg × 10 days). Moreover, the “Percentage reduction, as compared to the controls, of thrombus growth rate induced by ADP” value in data set [3] (120 minutes post-dose, equiv. to DHA 50 mg/kg × 10 days) turned out to be 22.3%. In addition, in data set [3] (setting [4]), the “percentage reduction in ADP-induced thrombus growth rate, of the order of max.” value was 33-34%. Also, the “antithrombotic activity (in words)” value in data set [3] (10 days) was “highly active”.

For the origin of these results see US5869714A, “Salts of omega-3-polyunsaturated fatty acids and pharmaceutical formulations containing them” (Prospa B.V., priority 1994, dated 1999).
